How the values were obtained:
[1] = tested on: T1, Melitta hemorrhoidalis CYP9FU3; assay: fluorescent probe saturation kinetics, Michaelis-Menten; parameters: species or system Melitta haemorrhoidalis; conditions: NADPH; recombinant microsomes
T1 construct: recombinant, baculovirus, High-5 (Trichoplusia ni) cell microsomes; coexpressed with A. mellifera CPR (XP_006569769.1)

[2] = tested on: T2, Xylocopa violacea CYP9Q18; assay: as above; type: biochemical; conditions: NADPH; recombinant microsomes
T2 construct: recombinant, baculovirus, High-5 (Trichoplusia ni) cell microsomes; coexpressed with A. mellifera CPR (XP_006569769.1)

Andrena vaga CYP9FT2 = tested on: T3, Andrena vaga CYP9FT2; assay: as above; type: biochemical; conditions: NADPH; recombinant microsomes
T3 construct: recombinant, baculovirus, High-5 (Trichoplusia ni) cell microsomes; coexpressed with A. mellifera CPR (XP_006569769.1)

[3] = tested on: T4, Colletes cunicularius CYP9FZ2; assay: as above; type: biochemical; conditions: NADPH; recombinant microsomes
T4 construct: recombinant, baculovirus, High-5 (Trichoplusia ni) cell microsomes; coexpressed with A. mellifera CPR (XP_006569769.1)

A. mellifera CYP9Q3 = biological target: T5, A. mellifera CYP9Q3 (Apis mellifera, UniProt A0A7M7LMV1); assay: UPLC-MS/MS depletion and metabolite formation assay; type: biochemical; conditions: 10 µM substrate; NADPH regeneration system; 2 h, 30 °C; recombinant microsomes
T5 construct: gene LOC408453; recombinant, baculovirus, High-5 (Trichoplusia ni) cell microsomes; coexpressed with A. mellifera CPR (XP_006569769.1)
T5 sequence (A0A7M7LMV1 1-517): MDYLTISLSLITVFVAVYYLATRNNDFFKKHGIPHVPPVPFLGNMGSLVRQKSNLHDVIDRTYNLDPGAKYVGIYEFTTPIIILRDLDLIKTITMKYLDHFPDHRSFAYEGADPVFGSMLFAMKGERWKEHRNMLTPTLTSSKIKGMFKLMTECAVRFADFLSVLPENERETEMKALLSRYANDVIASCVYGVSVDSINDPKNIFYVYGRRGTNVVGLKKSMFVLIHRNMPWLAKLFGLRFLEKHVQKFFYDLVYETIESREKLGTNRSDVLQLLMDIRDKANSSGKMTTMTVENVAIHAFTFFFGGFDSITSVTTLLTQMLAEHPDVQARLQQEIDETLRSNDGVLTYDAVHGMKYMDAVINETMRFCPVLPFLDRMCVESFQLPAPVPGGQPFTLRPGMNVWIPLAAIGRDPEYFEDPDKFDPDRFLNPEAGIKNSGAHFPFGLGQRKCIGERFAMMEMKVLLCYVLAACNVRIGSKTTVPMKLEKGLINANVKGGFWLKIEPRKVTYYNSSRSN

SMILES | Km [1] [µM] | Km [2] [µM] | Km (Andrena vaga CYP9FT2) [µM] | Km [3] [µM] | UPLC-MS/MS depletion and metabolite formation assay (A. mellifera CYP9Q3)
O=c1cc(C(F)(F)F)c2ccc(OCOCc3ccccc3)cc2o1 [BOMFC, 7-benzyloxymethoxy-4-trifluoromethyl coumarin] | 8.16 | 15.2 | 7.43 | 14.7 | –
O=C1C=C(N(Cc2ccc(Cl)nc2)CC(F)F)CO1 [flupyradifurone] | – | – | – | – | FPF metabolite formation was remarkably uniform among all the P450s tested

Reference: article PMC9245717, “Phylogenomic and functional characterization of an evolutionary conserved cytochrome P450-based insecticide detoxification mechanism in bees” (Proceedings of the National Academy of Sciences of the …, 2022)
